Laboratory results taken from the supplement of paper PMC8882468.

Assays:
Assay in all cases: CTG-3D luminescence at 96 h relative to day-0 seeding control (ratio to day 0); higher = more growth / less cytotoxicity; PDxO 3D drug screen, 96 h, CTG-3D normalised to day-0 seeding control.
[1] = test system: HCI-016 (organoid from a triple-negative breast cancer xenograft)
[2] = test system: HCI-019 (organoid from a triple-negative breast cancer xenograft)
[3] = test system: HCI-008 (organoid from a HER2-enriched breast cancer xenograft)
[4] = test system: HCI-010 (organoid from a breast cancer xenograft)
[5] = test system: HCI-025 (organoid from a breast cancer xenograft)
[6] = test system: HCI-027 (organoid from a triple-negative breast cancer xenograft)

O=C(O)C1(C(=O)O)CCC1.[NH2-].[NH2-].[Pt+2] [carboplatin]
CTG-3D luminescence at 96 h
Conditions	12.5 pM	0.00025 µM	0.005 µM	0.1 µM	1 µM	10 µM	100 µM	625 fM
[1], days in culture: 153	3.27	2.03	2.66	2.2	2.81	0.866	0.0935	2.64
[1], days in culture: 172	2.27	2.25	1.89	1.3	1.71	0.761	0.139	1.78
[1], days in culture: 190	1.49	1.29	1.53	1.17	1.46	0.642	0.12	1.18
[1], days in culture: 199	1.55	1.29	1.34	1.29	1.64	0.782	0.081	1.86
[2], days in culture: 110	1.39	1.76	1.53	2.63	1.29	1.16	0.26	1.97
[2], days in culture: 131	2.21	3.56	2.77	2.39	2.12	1.23	0.234	3.26
[2], days in culture: 152	2.94	2.48	2.23	1.4	1.99	1.4	0.291	1.64
[3], days in culture: 228	1.58	2.29	1.79	2.05	1.57	1.31	0.0629	1.63
[3], days in culture: 244	1.2	1.8	1.7	2.09	1.78	1.89	0.158	1.98
[4], days in culture: 52	1.92	2.23	2.25	2.47	2.55	0.598	0.0393	1.82
[4], days in culture: 65	1.63	1.56	1.74	1.77	1.63	0.511	0.0408	1.74
[4], days in culture: 103	3.69	3.41	3.55	3.27	3.23	0.639	0.13	3.07
[5], days in culture: 172	2.56	1.71	3.2	1.24	2.75	1.11	0.15	1.35
[5], days in culture: 209	1.97	1.73	1.67	1.49	1.79	0.85	0.119	1.86
[5], days in culture: 218	1.73	1.73	1.72	2.01	1.43	1.14	0.203	1.73
[6], days in culture: 176	1.57	1.38	2.11	1.68	2.42	1.35	0.0917	1.72
[6], days in culture: 194	1.43	1.55	1.4	1.9	2.15	1.91	0.181	1.44
[6], days in culture: 201	2.1	1.98	2.09	2.08	2.19	1.53	0.145	1.71
